Laboratory results: patent US20230257376A1, “ROCK INHIBITOR, AND PREPARATION METHOD THEREFOR AND USE THEREOF” (WUHAN LL SCIENCE AND TECHNOLOGY DEVELOPMENT CO., LTD., priority 2020, published 2023)
pIC50: −log10 of the molar value.

Key:
ROCK2 kinase = target: T1, ROCK2 kinase (Homo sapiens, UniProt O75116); test: In vitro evaluation of ROCK2 kinase activity (HTRF KinEASE-STK time-resolved fluorometric assay); assay type: biochemical; settings: ROCK2 kinase 0.4 ng/μL, ATP 6.739 μM
T1 construct: purchased Invitrogen PV3759
T1 sequence (O75116 whole entry): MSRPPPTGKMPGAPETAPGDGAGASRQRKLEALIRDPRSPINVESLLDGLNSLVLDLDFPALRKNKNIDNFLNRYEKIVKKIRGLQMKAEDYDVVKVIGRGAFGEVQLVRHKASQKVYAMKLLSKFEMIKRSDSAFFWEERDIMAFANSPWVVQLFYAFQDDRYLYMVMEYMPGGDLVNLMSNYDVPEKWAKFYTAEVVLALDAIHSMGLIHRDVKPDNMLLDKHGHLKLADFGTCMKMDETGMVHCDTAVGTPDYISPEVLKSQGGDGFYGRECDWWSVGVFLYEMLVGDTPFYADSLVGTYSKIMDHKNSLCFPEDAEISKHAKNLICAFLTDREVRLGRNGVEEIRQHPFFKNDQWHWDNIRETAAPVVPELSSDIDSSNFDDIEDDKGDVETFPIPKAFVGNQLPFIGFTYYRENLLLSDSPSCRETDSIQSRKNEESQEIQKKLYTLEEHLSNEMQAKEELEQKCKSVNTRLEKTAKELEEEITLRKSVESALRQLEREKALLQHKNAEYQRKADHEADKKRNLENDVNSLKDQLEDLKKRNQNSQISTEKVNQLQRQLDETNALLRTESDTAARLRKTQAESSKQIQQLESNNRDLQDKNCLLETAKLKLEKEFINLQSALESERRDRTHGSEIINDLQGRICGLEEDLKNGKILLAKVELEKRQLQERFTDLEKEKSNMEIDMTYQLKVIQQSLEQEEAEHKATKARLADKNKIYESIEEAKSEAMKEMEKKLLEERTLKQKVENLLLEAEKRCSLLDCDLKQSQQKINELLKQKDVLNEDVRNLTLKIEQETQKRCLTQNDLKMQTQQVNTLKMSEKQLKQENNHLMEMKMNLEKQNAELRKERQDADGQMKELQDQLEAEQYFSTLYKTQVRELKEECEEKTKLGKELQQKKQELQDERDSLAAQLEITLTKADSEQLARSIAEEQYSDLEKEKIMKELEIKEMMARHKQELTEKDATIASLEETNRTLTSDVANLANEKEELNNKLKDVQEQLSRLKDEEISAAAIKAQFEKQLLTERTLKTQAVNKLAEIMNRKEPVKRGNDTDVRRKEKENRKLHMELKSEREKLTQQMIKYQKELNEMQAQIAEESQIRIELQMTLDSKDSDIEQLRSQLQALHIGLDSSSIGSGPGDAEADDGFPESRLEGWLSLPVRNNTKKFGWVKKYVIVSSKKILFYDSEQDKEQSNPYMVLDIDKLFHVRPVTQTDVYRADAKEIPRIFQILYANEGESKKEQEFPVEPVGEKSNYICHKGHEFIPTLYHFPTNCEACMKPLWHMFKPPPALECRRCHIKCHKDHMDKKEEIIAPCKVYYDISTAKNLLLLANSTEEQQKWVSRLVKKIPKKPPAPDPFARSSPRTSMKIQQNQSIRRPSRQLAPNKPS
Procedure: ROCK2 activity screening. ROCK2 activity was detected using a 96-well (Cisbio) time-resolved fluorometric assay. The assay for ROCK2 was performed in the following assay buffer: 5 mM MgCl2 (Sigma), 1 mM DTT (Sigma) and 1× kinase buffer. The kinase buffer was used for dilution. 7.5 μL of ROCK2 kinase (Invitrogen, PV3759) was added to a 96-well microplate to reach a final concentration of 0.4 ng/μL, and then 0.25 μL of test compound (DMSO content: 1% (volume fraction)) was added. The mixture was incubated at room temperature for 0.5 h. To start the reaction, the kinase buffer was used to mix ATP (Aladdin) and the substrate STK-substrate 2-biotin. 7.5 μL of the mixed solution was added to the microplate to reach final concentrations of 6.739 μM and 1 μM. The resulting mixture was incubated at room temperature for 2 h. 5 mL of detection buffer was mixed with STK antibody-Cryptate, and then an appropriate volume of the mixture was mixed with an equal volume of streptavidin-XL665. 10 μL of the resulting mixture was added to the microplate to stop the reaction. After further incubation for about 1 h, the microplate was read on a Molecular Devices SpectraMax i3x multifunctional microplate reader. The kinase buffer, the STK-substrate 2-biotin, the detection buffer, the STK antibody-Cryptate, and the streptavidin-XL665 were all from HTRF KinEASE-STK kit (Cisbio, 1000 tests, 61GSTXLA).

ROCK1 kinase = target: T2, ROCK1 kinase (Homo sapiens, UniProt Q13464); test: In vitro evaluation of ROCK1 kinase selectivity (HTRF KinEASE-STK time-resolved fluorometric assay); assay type: biochemical; settings: ROCK1 kinase 0.4 ng/μL, ATP 3.53 μM
T2 construct: purchased Invitrogen
T2 sequence (Q13464 whole entry): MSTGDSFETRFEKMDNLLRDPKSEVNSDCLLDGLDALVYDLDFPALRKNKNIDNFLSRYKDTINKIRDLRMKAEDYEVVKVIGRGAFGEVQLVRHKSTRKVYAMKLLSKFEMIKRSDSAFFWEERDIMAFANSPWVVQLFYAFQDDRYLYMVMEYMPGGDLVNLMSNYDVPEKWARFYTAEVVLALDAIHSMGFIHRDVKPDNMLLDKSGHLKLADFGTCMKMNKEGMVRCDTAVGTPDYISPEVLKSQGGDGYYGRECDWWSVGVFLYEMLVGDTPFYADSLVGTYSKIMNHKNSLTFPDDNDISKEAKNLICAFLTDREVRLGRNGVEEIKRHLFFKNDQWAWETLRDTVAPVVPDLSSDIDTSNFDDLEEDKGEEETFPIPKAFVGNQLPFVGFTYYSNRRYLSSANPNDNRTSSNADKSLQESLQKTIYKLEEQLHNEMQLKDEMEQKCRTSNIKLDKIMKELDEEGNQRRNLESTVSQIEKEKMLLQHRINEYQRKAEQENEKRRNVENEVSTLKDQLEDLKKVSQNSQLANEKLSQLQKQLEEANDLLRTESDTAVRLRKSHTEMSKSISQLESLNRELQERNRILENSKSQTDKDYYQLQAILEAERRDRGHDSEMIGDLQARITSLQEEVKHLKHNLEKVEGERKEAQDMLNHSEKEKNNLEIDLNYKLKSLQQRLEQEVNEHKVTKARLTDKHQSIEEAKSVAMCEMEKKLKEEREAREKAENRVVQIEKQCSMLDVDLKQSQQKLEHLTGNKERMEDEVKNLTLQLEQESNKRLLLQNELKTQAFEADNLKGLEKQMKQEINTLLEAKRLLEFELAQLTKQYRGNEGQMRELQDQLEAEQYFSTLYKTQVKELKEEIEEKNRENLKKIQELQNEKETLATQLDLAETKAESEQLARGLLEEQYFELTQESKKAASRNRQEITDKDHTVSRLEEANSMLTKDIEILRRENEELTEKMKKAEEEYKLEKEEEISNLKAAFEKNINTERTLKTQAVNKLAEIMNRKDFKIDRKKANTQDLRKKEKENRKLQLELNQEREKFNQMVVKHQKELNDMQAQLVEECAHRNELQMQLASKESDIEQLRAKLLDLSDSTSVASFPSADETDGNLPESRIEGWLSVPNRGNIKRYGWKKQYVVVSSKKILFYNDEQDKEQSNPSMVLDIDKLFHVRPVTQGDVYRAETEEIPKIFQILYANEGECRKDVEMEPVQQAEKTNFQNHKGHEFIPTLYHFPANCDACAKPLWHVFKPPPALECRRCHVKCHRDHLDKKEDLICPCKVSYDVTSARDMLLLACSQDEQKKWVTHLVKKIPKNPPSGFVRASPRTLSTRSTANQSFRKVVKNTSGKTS
Procedure: ROCK1 activity was detected using a 96-well (Cisbio) time-resolved fluorometric assay. The assay for ROCK1 was performed in the following assay buffer: 5 mM MgCl2 (Sigma), 1 mM DTT (Sigma) and 1× kinase buffer. The kinase buffer was used for dilution. 7.5 μL of ROCK1 kinase (Invitrogen) was added to a 96-well microplate to reach a final concentration of 0.4 ng/μL, and then 0.25 μL of test compound (DMSO content: 1%) was added. The mixture was incubated at room temperature for 0.5 h. To start the reaction, the kinase buffer was also used to mix ATP (Aladdin) and the substrate STK-substrate 2-biotin. 7.5 μL of the mixed solution was added to the microplate to reach final concentrations of 3.53 μM and 1 μM. The resulting mixture was incubated at room temperature for 2 h. 5 mL of detection buffer was mixed with STK antibody-Cryptate, and then an appropriate volume of the mixture was mixed with an equal volume of streptavidin-XL665. 10 μL of the resulting mixture was added to stop the reaction. After further incubation for about 1 h, the microplate was read on a Molecular Devices SpectraMax i3x multifunctional microplate reader. The kinase buffer, the STK-substrate 2-biotin, the detection buffer, the STK antibody-Cryptate, and the streptavidin-XL665 were all from HTRF KinEASE-STK kit (Cisbio, 1000 tests, 61GSTXLA).

[1] = In vitro cytotoxicity assay in HepG2 cells using the CCK-8 method; assay type: cell-based; settings: human
Procedure: In vitro cytotoxicity assay for the compounds disclosed herein was performed in HepG2 cells using the CCK-8 method. HepG2 cells (Beina Bio) in the logarithmic growth phase were collected, the concentration of cell suspension was adjusted, and then the cells were plated on a 96-well cell culture plate at 50,000 cells/well. The cells were then incubated overnight in a cell incubator (5%, 37° C.), and after 80-90% cell confluence was achieved, test compound at each concentration gradient or vehicle (DMSO) was added after medium change. The resulting mixture was incubated in the cell incubator (5%, 37° C.) for 48 h. After the treatment, the medium in the plate was discarded. The plate was washed twice with PBS, added with CCK-8 working solution (Beyotime) at 100 μL per well, and then incubated at 37° C. for 1.5 h in the dark. Absorbance at OD450 nm mil was measured for each well on a microplate reader, and CC50 value of each compound was analyzed and calculated.

[2] = In vitro metabolic stability, human liver microsome incubation; assay type: in vitro ADME; settings: liver microsomes, 1 mg/mL protein, 37° C., read-out: T1/2 in human liver microsome
Procedure: (§1) The in vitro metabolic stability of the compounds disclosed herein was determined through incubation of liver microsomes of various species. A proper amount of test compound was added into a liver microsome reaction system (1 mg/mL liver microsome protein, 25 U/mL glucose-6 phosphate dehydrogenase, 1 mM NADP, 6 mM D-glucose 6-phosphate and 5 mM MgCl2), and then the mixture was incubated in a water bath kettle at 37° C. to start reaction. At each time point, 100 μL of the reaction liquid was added into a centrifuge tube containing 400 μL of internal standard working solution (containing a 200 ng/mL solution of dexamethasone, diclofenac, tolbutamide and labetalol in acetonitrile) precooled at 0° C. so as to stop the reaction, and the mixture was then centrifuged at 10,000 g for 10 min at 4° C. The supernatant was collected for LC-MS assay so as to obtain the values of in vitro metabolic half-life of the test compounds in liver microsomes of various species.

[3] = In vitro metabolic stability, rat liver microsome incubation; assay type: in vitro ADME; settings: liver microsomes, 1 mg/mL protein, 37° C., read-out: T1/2 in rat liver microsome
Procedure: as §1

[4] = In vitro metabolic stability, guinea pig liver microsome incubation; assay type: in vitro ADME; settings: liver microsomes, 1 mg/mL protein, 37° C., read-out: T1/2 in guinea pig liver microsome
Procedure: as §1

Compound	pIC50 (ROCK2 kinase)	pIC50 (ROCK1 kinase)	half-life [2] [h]	half-life [3] [h]	half-life [4] [h]	CC50 at 48 h [1] [µM]
Cn1c(C(=O)OCC(F)(F)F)cc2c1CN(c1nccc(Nc3ccc(-c4cn[nH]c4)cc3)n1)CC2 [Compound L032, 2,2,2-trifluoroethyl 6-(4-((4-(1H-pyrazol-4-yl)phenyl)amino)pyrimidin-2-yl)-1-methyl-4,5,6,7-tetrahydro-1H-pyrrolo[2,3-c]pyridine-2-carboxylate]	6.30 to 7.30	< 5.35	1.35	0.708	0.563	28.4
Cn1c(C(=O)N2CC(F)(F)C2)cc2c1CN(c1nc(C#N)cc(Nc3ccc(-c4cn[nH]c4)cc3)n1)CC2 [Compound L042]	6.30 to 7.30	< 5.35	7.3	5.75	5.81	27.9
Cc1nc(Nc2ccc(-c3cn[nH]c3)cc2)nc(N2CCc3cc(C(=O)N4CC(C#N)C4)n(C)c3C2)n1 [Compound L050, 1-(6-(4-((4-(1H-pyrazol-4-yl)phenyl)amino)-6-methyl-1,3,5-triazin-2-yl)-1-methyl-4,5,6,7-tetrahydro-1H-pyrrolo[2,3-c]pyridin-2-carbonyl)azetidine-3-carbonitrile]	6.30 to 7.30	< 5.35	4.32	1.03	1.07	> 100
Cn1c(C(=O)N2CC(F)(F)C2)cc2c1CN(c1nc(CC#N)nc(Nc3ccc(-c4cn[nH]c4)cc3)n1)CC2 [Compound L051, 2-(4-((4-(1H-pyrazol-4-yl)phenyl)amino)-6-(2-(3,3-difluoroazetidin-1-carbonyl)-1-methyl-1,4,5,7-tetrahydro-6H-pyrrolo[2,3-c]pyridin-6-yl)-1,3,5-triazin-2-yl)acetonitrile]	6.30 to 7.30	< 5.35	4.82	1.08	0.84	> 100
Cn1c(C(=O)N2CC(C#N)C2)cc2c1CN(c1ncc(F)c(Nc3ccc(-c4cn[nH]c4)cc3)n1)CC2 [Compound L056, 1-(6-(4-((4-(1H-pyrazol-4-yl)phenyl)amino)-5-fluoropyrimidin-2-yl)-1-methyl-4,5,6,7-tetrahydro-1H-pyrrolo[2,3-c]pyridin-2-carbonyl)azetidine-3-carbonitrile]	≥ 7.30	< 5.35	1.01	0.879	0.701	> 100

Further lines, with some results ahead:

pIC50 (ROCK2 kinase)	pIC50 (ROCK1 kinase)	half-life [2] [h]	half-life [3] [h]	half-life [4] [h]	Compound	CC50 at 48 h [1] [µM]
≥ 7.30	< 5.35	1.55	1.14	0.837	Cn1c(C(=O)N2CC(C(F)(F)F)C2)cc2c1CN(c1nccc(Nc3ccc(-c4cn[nH]c4)cc3)n1)CC2 [Compound L033]	> 100
≥ 7.30	< 5.35	2.61	0.554	1	Cn1c(C(=O)N2CC(F)(F)C2)cc2c1CN(c1nncc(Nc3ccc(-c4cn[nH]c4)cc3)n1)CC2 [Compound L037, (6-(5-((4-(1H-pyrazol-4-yl)phenyl)amino)-1,2,4-triazin-3-yl)-1-methyl-4,5,6,7-tetrahydro-1H-pyrrolo(2,3-c)pyridin-2-yl)(3,3-difluoroazetidin-1-yl)methanone]	> 100
6.30 to 7.30	< 5.35	3.17	0.759	2.18	Cn1c(C(=O)N2CC(F)(F)C2)cc2c1CN(c1nc(Nc3ccc(-c4cn[nH]c4)cc3)c3cccn3n1)CC2 [Compound L057, (6-(4-((4-(1H-pyrazol-4-yl)phenyl)amino)pyrrolo[2,1-f][1,2,4]triazin-2-yl)-1-methyl-4,5,6,7-tetrahydro-1H-pyrrolo[2,3-c]pyridin-2-yl)(3,3-difluoroazetidin-1-yl)methanone]	> 100
